Data reported in ChEMBL document CHEMBL4507289, “Data for DCP probe GSM1” (2021).
Active and inactive are the calls of the source.

Assays:
[1] = target: D(3) dopamine receptor (Homo sapiens) (UniProt P35462); details: Compound concentration 10.0 uM
[2] = target: MAP kinase-interacting serine/threonine-protein kinase 2 (Homo sapiens) (UniProt Q9HBH9); details: Compound concentration 1000.0 nM
[3] = target: Mitogen-activated protein kinase kinase kinase 20 (Homo sapiens) (UniProt Q9NYL2); details: Compound concentration 1000.0 nM
[4] = test system: Phosphatidylinositol 4,5-bisphosphate 3-kinase catalytic subunit alpha isoform (Homo sapiens), P42336 [E545K]; details: Compound concentration 1000.0 nM
[5] = target: Protein kinase C epsilon type (Homo sapiens) (UniProt Q02156); details: Compound concentration 1000.0 nM
[6] = target: Dual specificity tyrosine-phosphorylation-regulated kinase 2 (Homo sapiens) (UniProt Q92630); details: Compound concentration 1000.0 nM
[7] = target: Tyrosine-protein kinase receptor UFO (Homo sapiens) (UniProt P30530); details: Compound concentration 1000.0 nM
[8] = target: Vascular endothelial growth factor receptor 1 (Homo sapiens) (UniProt P17948); details: Compound concentration 1000.0 nM
[9] = target: Ribosomal protein S6 kinase alpha-3 (Homo sapiens) (UniProt P51812); details: Compound concentration 1000.0 nM
[10] = target: Serine/threonine-protein kinase tousled-like 1 (Homo sapiens) (UniProt Q9UKI8); details: Compound concentration 1000.0 nM
Serine/threonine-protein kinase tousled-like 1 (Homo sapiens), sequence (Q9UKI8 whole entry): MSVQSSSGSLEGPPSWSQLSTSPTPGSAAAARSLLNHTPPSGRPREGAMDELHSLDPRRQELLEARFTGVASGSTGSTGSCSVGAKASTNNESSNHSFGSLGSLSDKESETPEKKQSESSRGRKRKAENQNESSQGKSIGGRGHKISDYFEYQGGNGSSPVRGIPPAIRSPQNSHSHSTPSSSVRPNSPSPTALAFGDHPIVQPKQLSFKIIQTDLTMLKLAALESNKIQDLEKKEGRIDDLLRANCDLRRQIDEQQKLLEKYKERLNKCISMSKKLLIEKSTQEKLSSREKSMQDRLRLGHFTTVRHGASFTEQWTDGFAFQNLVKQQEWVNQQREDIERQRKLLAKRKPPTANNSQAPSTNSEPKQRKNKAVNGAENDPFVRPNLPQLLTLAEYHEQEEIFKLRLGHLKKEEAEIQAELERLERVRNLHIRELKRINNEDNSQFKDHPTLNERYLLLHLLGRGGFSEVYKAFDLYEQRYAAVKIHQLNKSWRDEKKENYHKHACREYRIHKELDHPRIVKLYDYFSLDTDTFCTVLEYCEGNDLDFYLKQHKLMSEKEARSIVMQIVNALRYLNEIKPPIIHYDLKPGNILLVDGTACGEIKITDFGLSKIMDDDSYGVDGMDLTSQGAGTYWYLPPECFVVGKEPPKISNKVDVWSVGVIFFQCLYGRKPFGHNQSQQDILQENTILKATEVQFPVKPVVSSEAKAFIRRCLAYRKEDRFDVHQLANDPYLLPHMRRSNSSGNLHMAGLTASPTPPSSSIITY

[11] = target: Serine/threonine-protein kinase D1 (Homo sapiens) (UniProt Q15139); details: Compound concentration 1000.0 nM
[12] = target: Serine/threonine-protein kinase RIO2 (Homo sapiens) (UniProt Q9BVS4); details: Compound concentration 1000.0 nM
[13] = target: Amyloid-beta precursor protein (Homo sapiens, UniProt P05067); assay: Aβ42 inhibition assay
[14] = target: Serine/threonine-protein kinase TAO3 (Homo sapiens) (UniProt Q9H2K8); details: Compound concentration 1000.0 nM
[15] = test system: Proto-oncogene tyrosine-protein kinase receptor Ret (Homo sapiens), P07949 [V804L]; details: Compound concentration 1000.0 nM
[16] = target: Transient receptor potential cation channel subfamily M member 6 (Homo sapiens) (UniProt Q9BX84); details: Compound concentration 1000.0 nM
Transient receptor potential cation channel subfamily M member 6 (Homo sapiens), sequence (Q9BX84 whole entry): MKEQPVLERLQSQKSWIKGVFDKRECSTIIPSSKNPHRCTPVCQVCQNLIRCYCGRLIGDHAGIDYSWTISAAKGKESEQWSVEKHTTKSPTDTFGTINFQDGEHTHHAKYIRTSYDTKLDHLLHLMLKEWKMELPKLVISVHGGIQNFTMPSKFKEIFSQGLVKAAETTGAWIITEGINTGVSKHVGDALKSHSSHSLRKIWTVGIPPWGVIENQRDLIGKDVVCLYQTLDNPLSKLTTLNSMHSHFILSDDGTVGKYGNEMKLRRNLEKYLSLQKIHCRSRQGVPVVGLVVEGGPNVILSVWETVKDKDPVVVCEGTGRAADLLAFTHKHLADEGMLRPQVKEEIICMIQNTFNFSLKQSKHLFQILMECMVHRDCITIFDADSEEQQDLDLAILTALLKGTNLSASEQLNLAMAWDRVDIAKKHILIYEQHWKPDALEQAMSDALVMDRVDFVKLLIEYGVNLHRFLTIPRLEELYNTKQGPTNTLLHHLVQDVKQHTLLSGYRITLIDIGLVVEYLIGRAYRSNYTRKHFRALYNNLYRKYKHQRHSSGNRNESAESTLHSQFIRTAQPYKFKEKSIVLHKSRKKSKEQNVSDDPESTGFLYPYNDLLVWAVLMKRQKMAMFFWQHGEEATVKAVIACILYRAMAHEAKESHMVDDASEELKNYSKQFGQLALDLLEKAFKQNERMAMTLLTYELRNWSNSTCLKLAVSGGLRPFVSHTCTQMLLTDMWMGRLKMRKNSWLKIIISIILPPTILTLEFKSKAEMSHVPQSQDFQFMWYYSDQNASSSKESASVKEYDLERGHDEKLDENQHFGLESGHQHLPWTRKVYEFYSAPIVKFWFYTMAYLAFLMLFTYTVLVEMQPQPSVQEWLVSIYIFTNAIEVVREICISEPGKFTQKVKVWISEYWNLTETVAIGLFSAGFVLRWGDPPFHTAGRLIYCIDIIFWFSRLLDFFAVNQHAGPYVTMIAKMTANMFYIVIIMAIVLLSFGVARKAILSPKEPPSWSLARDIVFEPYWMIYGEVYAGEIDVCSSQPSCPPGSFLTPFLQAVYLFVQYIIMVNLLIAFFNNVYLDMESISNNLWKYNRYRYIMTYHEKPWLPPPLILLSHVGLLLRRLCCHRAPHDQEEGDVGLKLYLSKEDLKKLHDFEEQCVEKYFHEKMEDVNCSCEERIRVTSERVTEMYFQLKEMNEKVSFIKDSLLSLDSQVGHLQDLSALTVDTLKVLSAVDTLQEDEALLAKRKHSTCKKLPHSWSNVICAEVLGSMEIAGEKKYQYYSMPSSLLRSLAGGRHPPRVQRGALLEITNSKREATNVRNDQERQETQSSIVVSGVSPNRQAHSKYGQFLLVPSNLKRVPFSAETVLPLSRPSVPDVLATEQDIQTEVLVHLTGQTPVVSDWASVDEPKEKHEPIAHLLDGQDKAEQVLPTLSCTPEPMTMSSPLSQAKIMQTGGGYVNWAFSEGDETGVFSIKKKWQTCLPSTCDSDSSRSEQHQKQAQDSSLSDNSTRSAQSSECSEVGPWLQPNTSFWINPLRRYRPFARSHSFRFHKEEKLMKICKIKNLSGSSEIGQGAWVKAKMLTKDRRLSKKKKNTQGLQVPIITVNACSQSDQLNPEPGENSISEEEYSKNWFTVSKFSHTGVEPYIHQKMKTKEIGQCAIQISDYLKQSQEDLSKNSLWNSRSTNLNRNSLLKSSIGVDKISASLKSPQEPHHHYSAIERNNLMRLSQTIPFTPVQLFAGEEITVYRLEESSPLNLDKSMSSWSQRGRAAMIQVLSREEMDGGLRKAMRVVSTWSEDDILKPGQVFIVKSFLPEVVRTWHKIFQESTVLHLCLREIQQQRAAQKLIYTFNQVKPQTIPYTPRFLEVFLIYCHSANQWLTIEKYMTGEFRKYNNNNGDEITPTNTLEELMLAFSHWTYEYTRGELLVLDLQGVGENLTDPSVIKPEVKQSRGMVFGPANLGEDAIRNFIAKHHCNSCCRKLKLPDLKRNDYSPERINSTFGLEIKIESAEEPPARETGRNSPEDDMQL

[17] = target: Tyrosine-protein kinase JAK2 (Homo sapiens) (UniProt O60674); details: Compound concentration 1000.0 nM
[18] = target: Tyrosine-protein kinase JAK1 (Homo sapiens) (UniProt P23458); details: Compound concentration 1000.0 nM
[19] = target: Atypical kinase COQ8A, mitochondrial (Homo sapiens) (UniProt Q8NI60); details: Compound concentration 1000.0 nM
Atypical kinase COQ8A, mitochondrial (Homo sapiens), sequence (Q8NI60 163-647 limits assumed): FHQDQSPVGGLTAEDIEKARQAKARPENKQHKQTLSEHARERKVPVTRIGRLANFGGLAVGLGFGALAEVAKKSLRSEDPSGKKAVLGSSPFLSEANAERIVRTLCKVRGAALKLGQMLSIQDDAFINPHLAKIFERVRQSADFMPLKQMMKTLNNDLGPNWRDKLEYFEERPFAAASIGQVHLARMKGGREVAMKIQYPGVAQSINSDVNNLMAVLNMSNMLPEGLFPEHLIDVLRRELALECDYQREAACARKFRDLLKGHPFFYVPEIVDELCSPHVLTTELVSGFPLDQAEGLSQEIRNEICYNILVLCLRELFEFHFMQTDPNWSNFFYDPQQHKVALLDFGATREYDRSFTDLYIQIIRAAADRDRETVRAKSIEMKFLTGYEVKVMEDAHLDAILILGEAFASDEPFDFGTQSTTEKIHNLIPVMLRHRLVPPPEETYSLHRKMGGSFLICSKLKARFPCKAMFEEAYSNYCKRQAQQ

[20] = target: Phosphatidylinositol 5-phosphate 4-kinase type-2 gamma (Homo sapiens) (UniProt Q8TBX8); details: Compound concentration 1000.0 nM
[21] = target: Cyclin-dependent kinase 8 (Homo sapiens) (UniProt P49336); details: Compound concentration 1000.0 nM
[22] = target: SNF-related serine/threonine-protein kinase (Homo sapiens) (UniProt Q9NRH2); details: Compound concentration 1000.0 nM
[23] = target: Mitogen-activated protein kinase kinase kinase 7 (Homo sapiens) (UniProt O43318); details: Compound concentration 1000.0 nM
[24] = target: 5-hydroxytryptamine receptor 5A (Homo sapiens) (UniProt P47898); details: Compound concentration 10.0 uM
[25] = target: Sodium-dependent serotonin transporter (Homo sapiens, UniProt P31645); details: Compound concentration 10.0 uM
[26] = target: Serine/threonine-protein kinase OSR1 (Homo sapiens) (UniProt O95747); details: Compound concentration 1000.0 nM
[27] = target: Inhibitor of nuclear factor kappa-B kinase subunit epsilon (Homo sapiens) (UniProt Q14164); details: Compound concentration 1000.0 nM
[28] = target: TGF-beta receptor type-1 (Homo sapiens) (UniProt P36897); details: Compound concentration 1000.0 nM
[29] = target: Casein kinase I isoform alpha-like (Homo sapiens) (UniProt Q8N752); details: Compound concentration 1000.0 nM
[30] = target: Phosphatidylinositol 4-phosphate 3-kinase C2 domain-containing subunit beta (Homo sapiens) (UniProt O00750); details: Compound concentration 1000.0 nM
[31] = target: Ephrin type-A receptor 6 (Homo sapiens) (UniProt Q9UF33); details: Compound concentration 1000.0 nM
[32] = target: Dual specificity protein kinase CLK2 (Homo sapiens) (UniProt P49760); details: Compound concentration 1000.0 nM
[33] = test system: Receptor-type tyrosine-protein kinase FLT3 (Homo sapiens), P36888 [UNDEFINED MUTATION]; details: Compound concentration 1000.0 nM
[34] = target: Serine/threonine-protein kinase PknB (Mycobacterium tuberculosis) (UniProt P9WI81); details: Compound concentration 1000.0 nM
[35] = target: GABA-A receptor; anion channel (Rattus norvegicus) (UniProt O09028+P15431+P18506+P18508+P19969+P20236+P23574+P23576+P28471+P28473+P30191+P62813+P63079+P63138+Q91ZM7+Q9ES14); details: Compound concentration 10.0 uM
[36] = target: Serine/threonine-protein kinase Sgk2 (Homo sapiens) (UniProt Q9HBY8); details: Compound concentration 1000.0 nM
Serine/threonine-protein kinase Sgk2 (Homo sapiens), sequence (Q9HBY8 whole entry): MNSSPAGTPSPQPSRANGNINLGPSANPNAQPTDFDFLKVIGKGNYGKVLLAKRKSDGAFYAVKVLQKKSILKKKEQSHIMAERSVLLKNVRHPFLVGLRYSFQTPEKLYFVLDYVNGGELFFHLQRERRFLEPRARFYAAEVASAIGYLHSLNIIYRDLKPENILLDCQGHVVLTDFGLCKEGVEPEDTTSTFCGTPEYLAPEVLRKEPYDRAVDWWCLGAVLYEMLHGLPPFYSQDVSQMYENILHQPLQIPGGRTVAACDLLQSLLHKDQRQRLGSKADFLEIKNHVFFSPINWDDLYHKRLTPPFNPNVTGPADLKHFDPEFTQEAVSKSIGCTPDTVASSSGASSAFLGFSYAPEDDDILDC

[37] = target: Serine/threonine-protein kinase 10 (Homo sapiens) (UniProt O94804); details: Compound concentration 1000.0 nM
Serine/threonine-protein kinase 10 (Homo sapiens), sequence (O94804 whole entry, looked up, canonical isoform): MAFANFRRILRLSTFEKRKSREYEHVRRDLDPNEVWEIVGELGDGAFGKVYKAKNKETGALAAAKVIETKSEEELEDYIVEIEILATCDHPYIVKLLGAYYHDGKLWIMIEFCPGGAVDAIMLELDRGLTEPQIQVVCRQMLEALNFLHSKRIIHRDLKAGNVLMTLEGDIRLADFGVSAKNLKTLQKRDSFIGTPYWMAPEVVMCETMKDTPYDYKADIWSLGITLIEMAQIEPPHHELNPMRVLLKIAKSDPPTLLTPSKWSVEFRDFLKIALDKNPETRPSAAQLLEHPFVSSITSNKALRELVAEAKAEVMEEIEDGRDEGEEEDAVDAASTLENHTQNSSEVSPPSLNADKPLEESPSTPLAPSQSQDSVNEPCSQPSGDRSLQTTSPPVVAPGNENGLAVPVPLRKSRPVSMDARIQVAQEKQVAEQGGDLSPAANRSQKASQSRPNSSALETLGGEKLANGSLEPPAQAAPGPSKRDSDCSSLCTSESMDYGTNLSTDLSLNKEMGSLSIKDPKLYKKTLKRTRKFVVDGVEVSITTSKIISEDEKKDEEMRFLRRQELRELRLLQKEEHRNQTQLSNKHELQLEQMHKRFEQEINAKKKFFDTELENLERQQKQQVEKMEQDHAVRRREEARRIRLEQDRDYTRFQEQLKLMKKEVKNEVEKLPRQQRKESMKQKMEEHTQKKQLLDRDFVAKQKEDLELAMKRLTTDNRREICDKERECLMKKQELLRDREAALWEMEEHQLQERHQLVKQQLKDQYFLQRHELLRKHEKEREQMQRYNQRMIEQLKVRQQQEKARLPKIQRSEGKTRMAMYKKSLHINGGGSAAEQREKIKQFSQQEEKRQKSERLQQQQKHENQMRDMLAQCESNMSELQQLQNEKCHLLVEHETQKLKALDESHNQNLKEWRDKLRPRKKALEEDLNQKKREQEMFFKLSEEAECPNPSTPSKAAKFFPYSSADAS

[38] = target: Casein kinase I isoform delta (Homo sapiens) (UniProt P48730); details: Compound concentration 1000.0 nM
[39] = target: SRSF protein kinase 2 (Homo sapiens) (UniProt P78362); details: Compound concentration 1000.0 nM
[40] = target: Phosphorylase b kinase regulatory subunit alpha, liver isoform (Homo sapiens) (UniProt P46019); details: Compound concentration 1000.0 nM
[41] = target: Dual specificity protein kinase CLK1 (Homo sapiens) (UniProt P49759); details: Compound concentration 1000.0 nM
[42] = target: Insulin-like growth factor 1 receptor (Homo sapiens) (UniProt P08069); details: Compound concentration 1000.0 nM
[43] = target: Mitogen-activated protein kinase kinase kinase 10 (Homo sapiens) (UniProt Q02779); details: Compound concentration 1000.0 nM

MAP kinase-interacting serine/threonine-protein kinase 2 (Homo sapiens), sequence (Q9HBH9 whole entry, looked up): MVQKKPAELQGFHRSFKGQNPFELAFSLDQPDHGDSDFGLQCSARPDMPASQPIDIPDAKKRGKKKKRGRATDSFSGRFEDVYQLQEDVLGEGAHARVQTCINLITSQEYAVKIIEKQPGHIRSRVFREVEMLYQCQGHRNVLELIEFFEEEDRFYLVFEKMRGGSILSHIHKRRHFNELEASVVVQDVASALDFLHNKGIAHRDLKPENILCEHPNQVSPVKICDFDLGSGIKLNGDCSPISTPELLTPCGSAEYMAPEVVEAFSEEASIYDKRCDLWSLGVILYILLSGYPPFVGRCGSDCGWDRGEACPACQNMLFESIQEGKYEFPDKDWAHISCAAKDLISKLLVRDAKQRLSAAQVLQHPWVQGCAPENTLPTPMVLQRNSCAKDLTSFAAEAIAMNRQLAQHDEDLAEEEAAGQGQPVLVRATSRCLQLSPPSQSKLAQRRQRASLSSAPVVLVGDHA

COc1cc(-c2cn([C@H]3CCc4c(F)cccc4N(CC(F)(F)F)C3=O)nn2)ccc1-n1cnc(C)c1
active: IC50 [13] 0.031 µM | inhibition [25] 88.6%
inactive: inhibition [1] 3.33% | residual activity [2] 76% | residual activity [3] 100% | residual activity [4] 70% | residual activity [5] 100% | residual activity [6] 100% | residual activity [7] 98% | residual activity [8] 97% | residual activity [9] 100% | residual activity [10] 100% | residual activity [11] 100% | residual activity [12] 100% | residual activity [14] 100% | residual activity [15] 100% | residual activity [16] 100% | residual activity [17] 100% | residual activity [18] 100% | residual activity [19] 100% | residual activity [20] 100% | residual activity [21] 100% | residual activity [22] 100% | residual activity [23] 100% | inhibition [24] 7.61% | residual activity [26] 100% | residual activity [27] 100% | residual activity [28] 100% | residual activity [29] 100% | residual activity [30] 100% | residual activity [31] 100% | residual activity [32] 100% | residual activity [33] 82% | residual activity [34] 82% | inhibition [35] 22.6% | residual activity [36] 95% | residual activity [37] 100% | residual activity [38] 100% | residual activity [39] 100% | residual activity [40] 100% | residual activity [41] 77% | residual activity [42] 100% | residual activity [43] 100%

COc1cc(-c2cn([C@H]3CCc4ccccc4N(CC(F)(F)F)C3=O)nn2)ccc1-n1ccc(C)n1
inactive: inhibition [1] 22% | residual activity [2] 66% | residual activity [3] 85% | residual activity [4] 84% | residual activity [5] 100% | residual activity [6] 94% | residual activity [7] 93% | residual activity [8] 100% | residual activity [9] 97% | residual activity [10] 84% | residual activity [11] 100% | residual activity [12] 96% | residual activity [14] 72% | residual activity [15] 100% | residual activity [16] 100% | residual activity [18] 80% | residual activity [19] 100% | residual activity [20] 100% | residual activity [21] 90% | residual activity [22] 99% | residual activity [23] 86% | inhibition [24] 9.69% | residual activity [26] 91% | residual activity [27] 68% | residual activity [28] 100% | residual activity [29] 100% | residual activity [30] 100% | residual activity [31] 98% | residual activity [32] 100% | residual activity [33] 80% | residual activity [34] 78% | inhibition [35] -6.73% | residual activity [36] 100% | residual activity [37] 100% | residual activity [38] 100% | residual activity [39] 81% | residual activity [40] 100% | residual activity [41] 87% | residual activity [42] 100% | residual activity [43] 96%
active: residual activity [17] 34% | inhibition [25] 90.6%
> 10 µM (not active): IC50 [13]
